Assay results published in patent US20250035641A1, “COMPOSITIONS AND METHODS RELATED TO PROTEIN LABELING” (The Chinese University of Hong Kong, priority 2023, published 2025).
“Also recorded” adds a separate entry of the source.

Experiments:
Format in all cases: cell-based
HTN-BRD4 = target: T1, HTN-BRD4 (Homo sapiens, UniProt O60885+P62942, F37V); assay: IP-WB of HTN-BRD4 O-GlcNAcylation (RL2) in HEK293T cells co-expressing fOGT; settings: for region of induced HTN-BRD4 O-GlcNAcylation: HTN-BRD4:fOGT=1:0.05, truncated/mutant constructs
T1 construct: HaloTag fragment; expressed in transfected cells; host or cells: HEK293T
T1 sequence (P62942 whole entry F37V, stated change not applied, other chains not shown, the tested form may be a part): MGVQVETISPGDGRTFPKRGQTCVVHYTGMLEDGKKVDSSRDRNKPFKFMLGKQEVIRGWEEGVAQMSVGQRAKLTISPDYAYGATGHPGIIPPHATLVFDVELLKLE
Description: We next assess their potency in inducing HTN-BRD4 O-GlcNAcylation in cell. […]
For each IP reaction, 2.2×10^6 HEK293T cells were seed in 10 cm dish. After cells attached, transfection reagents and plasmids were prepared and added in DMEM. After 24 h transfection, media were replaced by fresh warm complete media with DMSO or probes. For washout study, after 4 h treatment, media with DMSO or OGTAC-4 (500 nM) were replaced by fresh media with DMSO or AP1867 (50 μM) for further incubation. After certain time of OGTACs treatment, cells were collected by cold PBS and lysed by 200 μL complete IP lysis buffer. The lysate was incubated on ice for 20 min, spun down at 14,000 RPM at 4° C. for 15 mins, and the supernatant were collected for bicinchoninic acid (BCA) assay and normalized to a final 2 mg/mL. For input, 20 μL of diluted sample was reacted with equal volume of 10 μM TMR ligand in IP lysis buffer and rotate gently at RT for 15 mins. The remaining samples were subjected to protein A/G magnetic beads (MedChemExpress, HY-K0202), which pre-binding with protein target protein antibody. For samples for LC-MS/MS or HTN-BRD4 mutant constructs. Halo-Trap Magnetic Agarose (Proteintech, otma) was used to incubate with protein lysates. After gentle rotation at 4° C. for at least 16 h, the beads were washed with IP lysis buffer and boiled in 40 μL 2×SDS-loading buffer (Biorad #1610747) for 5 mins to elute proteins from beads. Eluted samples were directly subjected into WB analysis.
(§1) In general, cells (from 12 well plate) were lysed by 80 μl RIPA lysis buffer (Thermo Scientic 89901) supplemented with 20 μM OGA inhibitor (Thaimet G, Bidepharm BD571819) and 100X protease inhibitor (MedChemExpress, HY-K0010), incubated on ice for 20 min, spun down at 14,000 RPM at 4° C. for 15 mins, and the supernatant were collected for bicinchoninic acid (BCA) assay and normalizedeto a final 2 mg/mL concentration. About 30 μg of protein samples were loaded for sodium dodecyl sulfatepolyacrylamide gel electrophoresis (SDS-PADE) and blotted with indicated antibodies.

[1] = tested on: cellular global O-GlcNAc level; assay: Global (pan-RL2) O-GlcNAc level by immunoblot
Source text: After illustrating the potency and generality of the OGTAC strategy, we then assessed its specificity towards the global O-GlcNAc proteome. We quantified the total pan-O-GlcNAc level (except for the specific band for target POI) using immunoblotting. For well-validated OGT substrates such as CK2α relatively low fOGT protein amount is sufficient to facilitate the inducing effect of our OGTAC-1. […] HTN-BRD4:fOGT=1:0.01 condition is not sufficient for OGTAC to exert inducing effects even though ternary complex was formed (FIG. 15). We hypothesize that an optimal threshold of OGT protein levels is required for efficient O-GlcNAc transfer to BRD4. To address the trade-off between potency and specificity on BRD4, we developed a truncated fOGT system. The tetratricopeptide repeat (TPR) domain of fOGT is responsible for substrate recognition; truncation of TPR domain can reduce its activity towards protein substrates. We therefore constructed and compared several truncated fOGT (tfOGT) plasmids.
as §1

endogenous CK2α = assay: Chemoenzymatic labelling and mass-shift assay, endogenous CK2α; settings: OGTAC-1 treatment
HTN-CK2α = HTN-CK2α (Homo sapiens, UniProt P68400); assay: O-GlcNAcylation of HTN-CK2α with 0tfOGT; parameters: 0TPR(463-1046)-; expressed in transfected cells; settings: vs negative control OGTAC-1H
HTN-CK2α, sequence (P68400 with tags, fused parts or gaps): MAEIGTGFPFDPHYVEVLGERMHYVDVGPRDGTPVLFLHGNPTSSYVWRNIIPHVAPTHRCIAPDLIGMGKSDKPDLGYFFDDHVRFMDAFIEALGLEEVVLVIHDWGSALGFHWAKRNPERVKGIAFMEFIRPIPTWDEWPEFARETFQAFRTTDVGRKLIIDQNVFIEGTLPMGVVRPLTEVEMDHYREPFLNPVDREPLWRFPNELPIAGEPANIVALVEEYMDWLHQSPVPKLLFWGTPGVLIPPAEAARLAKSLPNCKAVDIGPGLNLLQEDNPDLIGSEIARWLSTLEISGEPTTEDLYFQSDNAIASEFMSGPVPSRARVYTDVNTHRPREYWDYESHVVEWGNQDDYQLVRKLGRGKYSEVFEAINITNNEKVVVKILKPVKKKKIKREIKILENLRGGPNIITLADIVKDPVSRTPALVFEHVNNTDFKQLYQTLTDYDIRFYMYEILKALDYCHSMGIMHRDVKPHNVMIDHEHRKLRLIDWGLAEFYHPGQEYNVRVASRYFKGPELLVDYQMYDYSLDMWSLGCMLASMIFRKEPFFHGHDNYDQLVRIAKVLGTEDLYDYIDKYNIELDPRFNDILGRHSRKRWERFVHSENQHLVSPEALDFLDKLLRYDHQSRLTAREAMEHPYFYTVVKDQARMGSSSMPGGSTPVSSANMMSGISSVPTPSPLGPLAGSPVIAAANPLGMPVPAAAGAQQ
HTN-CK2α, sequence (P62942+O15294 fused P62942:F37V partner): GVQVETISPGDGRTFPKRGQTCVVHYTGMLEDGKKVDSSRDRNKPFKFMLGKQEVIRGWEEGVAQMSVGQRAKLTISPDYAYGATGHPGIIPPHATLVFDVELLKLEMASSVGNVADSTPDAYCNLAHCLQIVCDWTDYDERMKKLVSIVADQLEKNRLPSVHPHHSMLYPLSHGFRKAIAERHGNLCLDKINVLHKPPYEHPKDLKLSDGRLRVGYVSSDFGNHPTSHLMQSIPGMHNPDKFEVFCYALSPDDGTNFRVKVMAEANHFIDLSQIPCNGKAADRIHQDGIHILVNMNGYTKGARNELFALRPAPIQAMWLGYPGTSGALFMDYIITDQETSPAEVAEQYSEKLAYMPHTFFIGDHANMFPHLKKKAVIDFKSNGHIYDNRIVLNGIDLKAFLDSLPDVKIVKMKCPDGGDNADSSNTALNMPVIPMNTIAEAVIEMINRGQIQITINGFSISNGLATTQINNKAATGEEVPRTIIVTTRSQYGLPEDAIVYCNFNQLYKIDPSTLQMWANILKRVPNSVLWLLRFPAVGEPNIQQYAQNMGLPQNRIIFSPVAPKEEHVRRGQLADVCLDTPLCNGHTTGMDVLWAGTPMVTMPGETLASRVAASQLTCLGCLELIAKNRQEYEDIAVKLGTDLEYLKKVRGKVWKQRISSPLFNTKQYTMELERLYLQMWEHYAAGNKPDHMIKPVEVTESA
Description: FIGS. 18A and 18B: Immunoblotting analysis of the global O-GlcNAcylation inducing effect of truncated OGTAC-4 and OGTAC-1 on HTN-BRD4 and HTN-CK2α respectively. (A), O-GlcNAcylation inducing effect of OGTAC-4 is dependent on the expression of 0tfOGT. […] The quantification was conducted by immunoblot signal of probe treatment/control as the mean±s.e.m. of n=2 biologically independent experiments. TR, transfection reagent.

efficacy as O-GlcNAcylation inducer (HTN-BRD4)	time at which O-GlcNAcylation of HTN-BRD4 was induced (HTN-BRD4; 640 nM)	time of peak induction of HTN-BRD4 O-GlcNAcylation (HTN-BRD4; 640 nM, longest time point)	lowest concentration promoting BRD4 O-GlcNAcylation and ternary complex (HTN-BRD4; 4 h, 3 nM conducted once)	O-GlcNAcylation inducing effect on HTN-BRD4 (HTN-BRD4; HTN-BRD4:fOGT=1:0.01 system)	region of induced HTN-BRD4 O-GlcNAcylation (HTN-BRD4)	fold increase of RL2 signal of BRD4 (HTN-BRD4; 640 nM, 2 h)	fold increase of RL2 signal of BRD4 (HTN-BRD4; 640 nM, 4 h)	concentration from which inducing effect declined (hook effect) (HTN-BRD4; 4 h)	O-GlcNAcylation level of HTN-CK2α with 0tfOGT (HTN-CK2α)	Structure (SMILES)	global O-GlcNAc level ([1]; 0tfOGT:HTN-BRD4 system)	global O-GlcNAc levels during reversibility study ([1]; HTN-BRD4:0tfOGT, washout study)	HTN-BRD4 O-GlcNAcylation inducing potency (HTN-BRD4; 5 μM, 4 h)	O-GlcNAcylation level of endogenous CK2α (endogenous CK2α)	cellular global O-GlcNAc level ([1]; 125 nM, HTN-CK2α:fOGT=1:0.01)	pan-RL2 level ([1]; HTN-BRD4:fOGT system, dose-response, 4 h)
submicromolar efficacy	≤ 2 h	24 h	3 nM	No O-GlcNAcylation inducing effect	C-terminal region (S1367-F1224)	–	–	–	–	CC[C@H](C(=O)N1CCCC[C@H]1C(=O)O[C@H](CCc1ccc(OC)c(OC)c1)c1cccc(OCC(=O)NCCCCCCNC(=O)C[C@@H]2N=C(c3ccc(Cl)cc3)c3c(sc(C)c3C)-n3c(C)nnc32)c1)c1cc(OC)c(OC)c(OC)c1 [OGTAC-4, (R)-1-(3-(2-((6-(2-((S)-4-(4-chlorophenyl)-2,3,9-trimethyl-6H-thieno[3,2-f[]8 1,2,4]triazolo[4,3-a][1,4]diazepin-6-yl)acetamido)hexyl)amino)-2-oxoethoxy)phenyl)-3-(3,4-dimethoxyphenyl)propyl (S)-1-((S)-2-(3,4,5-trimethoxyphenyl)butanoyl)piperidine-2-carboxylate]	without disruption of global O-GlcNAc level	remained unchanged	–	–	–	–
submicromolar efficacy	–	–	–	–	C-terminal region (S1367-F1224)	2.5 fold	around 2.8 fold	1.6 µM	higher O-GlcNAcylation level	CC[C@H](C(=O)N1CCCC[C@H]1C(=O)O[C@H](CCc1ccc(OC)c(OC)c1)c1cccc(OCC(=O)NCCOCCOCCCCCCCl)c1)c1cc(OC)c(OC)c(OC)c1 [OGTAC-1, (R)-1-(3-(2-((2-(2-((6-chlorohexyl)oxy)ethoxy)ethyl)amino)-2-oxoethoxy)phenyl)-3-(3,4-dimethoxyphenyl)propyl (S)-1-((S)-2-(3,4,5-trimethoxyphenyl)butanoyl) piperidine-2-carboxylate]	–	–	best O-GlcNAcylation inducing potency among three OGTACs; also recorded: outstanding potency	did not alter	not significantly changed	not affected
